{"source": "patent US20060052345A1", "about": "“Quinazolinone compounds as calcilytics” (NPS Pharmaceuticals, Inc., priority 2002, published 2006)", "key": {"ionized calcium (Ca^2+)": {"system": "ionized calcium (Ca^2+)", "assay": "Plasma ionized calcium levels after intravenous injection in normal rats", "type": "in vivo, rat", "conditions": "3 or 10 μmol/kg intravenous injection, normal conscious male Sprague-Dawley rats, up to 30 min (not shown)", "method": "(§1) 2-(2-Hydroxy-phenyl)-3-phenethyl-3H-quinazolin-4-one (compound 17) (3 or 10 μmol/kg) or vehicle was administered by intravenous injection over about 15 seconds to normal conscious male Sprague-Dawley rats with chronic indwelling arterial and venous catheters. Arterial blood samples were collected immediately before, and at 1, 5, 10, and 30 min after the start of the injection for measurement of the levels of parathyroid hormone (PTH), ionized calcium (Ca^2+) and compound 17 in plasma. PTH was measured using a specific rat PTH (1-84) ELISA (Immutopics, San Clemente, Calif.) and compound 17 was quantified by an LC-MS/MS method. Positive ions were generated by turbo ionspray and were subsequently fragmented by collision-induced dissociation, so that compound 17 could be detected by selected-reaction monitoring."}, "[1]": {"assay": "Plasma levels of compound 17 after intravenous injection in normal rats (LC-MS/MS)", "type": "in vivo, rat", "conditions": "3 or 10 μmol/kg intravenous injection, normal conscious male Sprague-Dawley rats, FIG. 1", "method": "as §1"}, "[2]": {"system": "parathyroid hormone (PTH)", "assay": "Plasma PTH levels after intravenous injection in normal rats (rat PTH (1-84) ELISA)", "type": "in vivo", "conditions": "3 or 10 μmol/kg intravenous injection, normal conscious male Sprague-Dawley rats, FIG. 2", "method": "as §1"}}}
{"smiles": "O=c1c2ccccc2nc(-c2ccccc2O)n1CCc1ccccc1", "note": "[compound 17, 2-(2-Hydroxy-phenyl)-3-phenethyl-3H-quinazolin-4-one]", "values": [{"measurement": "changes in plasma Ca^2+ levels", "setting": "ionized calcium (Ca^2+)", "result": "no consistent changes"}, {"measurement": "course of plasma levels of compound after the maximum", "setting": "[1]", "result": "declined rapidly during the next 10-30 min"}, {"measurement": "time after injection at which plasma levels of compound were maximal", "setting": "[1]", "result": 1, "unit": "min"}, {"measurement": "effect on plasma PTH levels", "setting": "[2]", "result": "rapid, but transient dose-related increase"}, {"measurement": "time after injection at which plasma PTH levels were maximal", "setting": "[2]", "result": 1, "unit": "min"}, {"measurement": "time after injection by which plasma PTH levels had returned to pre-dose levels", "setting": "[2]", "result": "≤ 10", "unit": "min"}]}
